Test results: patent US9289471B2, “Product and process for liquefaction of mucus or sputum” (National Jewish Health, priority 2002, dated 2016)

Tests used:
[1] = Magnetic microrheometry: viscoelasticity (log G*) of CF sputum; parameters: species or system human; settings: for decrease in log G* (before minus after exposure): 20 min (FIG. 4A); for log G* after treatment: 37° C., 20 minutes; for log G* after treatment / log G* before treatment: mean ± standard error; for decline in viscoelasticity (log G*): Trx (30 μM), TR (0.1 μM); for log G* before treatment: baseline, 4 samples
Description: Viscoelastic change in response to treatment was measured by means of a magnetic microrheometer as developed by King (King M., Magnetic microrheometer. In: Methods in Bronchial Mucology, edited by Braga P C, and Allegra L. New York: Raven Press, 1988, p. 73-83). An 80-120 μm steel sphere was placed in a 10 mg sputum sample. An electromagnet was used to oscillate this sphere, whose image was projected onto a pair of photocells via a microscope. […] G* was the mechanical impedance or vector sum of viscosity and elasticity. For Trx and NADPH dose response experiments, log G* at 10 rad/s was measured before any treatment (baseline), and then after 20 minute incubation with no treatment, diluent (H2O), or Trx with reducing system. All treatments were administered to the sample in a volume of H2O equal to 10% of total sample volume. One measurement was performed per aliquot of sample.
Magnetic microrheometry was performed to determine the effect of Trx and its reducing system on sputum viscosity. Measurements were performed on sputum samples before and after incubation with the Trx reducing system (Table 1) to determine the change in log G* (viscoelasticity).
In the experiment shown in FIG. […] Each column represents the mean±standard error for 4 samples (♦Statistically significant from H2O diluent value). […]

[2] = Compaction assay: percent liquid fraction of CF sputum; parameters: species or system human; settings: for percent liquid fraction: 20 min (FIG. 3A)
Description: CF sputum stored at −80° C. was thawed at room temperature and aliquoted into 1.5 ml Eppendorf centrifuge tubes at volumes of 275 μl using a positive displacement pipette (Rainin, Emeryville, Calif.). Sputum samples were subjected to either diluent (H2O), Trx+TR+NADPH, GSH+glutathione reductase+NADPH, dithiothreitol (DTT) or N-acetylcysteine treatment by the addition of 25 μl of H2O containing the appropriate molar concentration of each agent. After brief vortexing (˜1 second), sample tubes were loaded onto a microtube rotisserie (Barnstead, Dubuque, Iowa) and incubated at 37° C. for 20 minutes. Samples were then processed for compaction assay according to methodology originated by Daugherty et al. (Daugherty et al., Biomaterials 16:553-558, 1995). To perform the assay, the contents of each sample were loaded into 100 μl glass micro-capillary tubes (Fisher Scientific) that had been previously welded to 200 μl pipette tips in order to achieve a tight fit. Three modified capillary tubes were used to draw up >90% of each sputum sample. Capillary tubes were then removed from their pipette tip, sealed with clay, and centrifuged for 10 minutes in a hematocrit centrifuge (IEC, Needham Heights, Mass.), followed by measurement of the length in millimeters of the gel (solid) and aqueous (liquid) phases in each tube. The percent liquid fraction of each capillary tube was calculated by dividing aqueous phase length by total length (gel+aqueous)×100. The three measurements of the liquid fraction (%) derived from each sample were then averaged to generate a single value for each treatment condition.
Due to abnormal ion transport caused by defects in the CFTR gene, airway secretions in CF patients are often desiccated. As a consequence, purulent CF sputum is comprised largely of a rigid and nonflowing biopolymer matrix, often referred to as gel phase, and lesser amounts of soluble, liquid phase. To assess the effect of Trx on the ratios of these two phases in sputum, compaction assay measurements were performed. […] After 20 minute incubation, the liquid fraction of each sample was determined by compaction assay.
To examine the effect of NADPH, additional samples from different donors were treated with 30 μM Trx, 0.1 μM TR and either 0, 0.2, 0.6, 1.0 or 2 mM NADPH for 20 minutes.
To assess the reproducibility of compaction assay measurements, sputum samples from three different CF donors were separated into aliquots and frozen. Specifically, freshly isolated CF sputum from three different donors (A, B, C) was separated into 275 μl aliquots and frozen. […] Results obtained from three independent experiments performed on each donor sample were used to evaluate assay reproducibility. On three consecutive days, aliquots were thawed, and treated with water, Trx and its reducing system, dithiothreitol (DTT), or no treatment.
The effectiveness of Trx in liquefying sputum was compared with other monothiol and dithiol reducing agents. Sputum samples were aliquoted and treated with Trx or GSH for 20 minutes and percent liquid determined by compaction assay. Initial compaction assay experiments compared the potencies of the Trx and GSH reducing systems in liquefaction of sputum in the presence of equimolar concentrations of NADPH. […] The analysis of Trx and NAC efficacy also was determined after 20 minute incubation, but on a different set of sputum samples.

[3] = 10 μM Trx + 0.1 μM TR + 2 mM NADPH
[4] = 30 μM Trx + 0.1 μM TR + 2 mM NADPH

Trx: Lyophilized recombinant E. coli Trx from Promega; protein disulfide reductase, used with its reducing system (TR + NADPH)
decrease in log G* (before minus after exposure) ([1]; 3 μM Trx + 0.1 μM TR + 2 mM NADPH): 0.26 log units | log G* after treatment ([1]; 3 μM Trx + 0.1 μM TR and 2 μM NADPH): 3.11 ± 0.04 | decrease in log G* (before minus after exposure) [1, 3]: 0.39 log units | log G* after treatment ([1]; 10 μM Trx + 0.1 μM TR and 2 μM NADPH): 2.94 ± 0.05 | decrease in log G* (before minus after exposure) [1, 4]: 0.65 log units | log G* after treatment ([1]; 30 μM Trx + 0.1 μM TR and 2 μM NADPH): 2.63 ± 0.04 | sputum viscoelasticity ([1]; 20 minute treatment with 3, 10, or 30 μM Trx): significantly diminished | decline in viscoelasticity (log G*) ([1]; 0.2 mM NADPH (FIG. 4B)): 0.16 log units | decline in viscoelasticity (log G*) ([1]; 0.6 mM NADPH (FIG. 4B)): 0.26 log units | decline in viscoelasticity (log G*) ([1]; 2 mM NADPH (FIG. 4B)): 0.39 log units | log G* before treatment ([1]; aliquots for 3 μM Trx): 3.37 ± 0.06 | log G* before treatment ([1]; aliquots for 10 μM Trx): 3.33 ± 0.06 | log G* before treatment ([1]; aliquots for 30 μM Trx): 3.28 ± 0.04 | percent liquid fraction [2, 3]: 34.8±6.6% | percent liquid fraction [2, 4]: 54.6±10.4% | percentage of sputum present in the liquid phase ([2]; 30 μM Trx + 0.1 μM TR + 2 mM NADPH, 20 min, different donors (FIG. 1B)): 70.55±18.13% | percentage of sputum present in the liquid phase ([2]; 30 μM Trx + 0.1 μM TR without NADPH, 20 min (FIG. 1B)): 2.9%±1.3 | percent liquid fraction ([2]; 60 μM Trx + 0.1 μM TR + 2 mM NADPH): 67.0±8.0% | 3 day range of percent of sputum in the liquid state ([2]; donor B, 30 μM Trx with reducing system): 46-51% | range of percent liquid values ([2]; donor C, 30 μM Trx with reducing system): 62-81%
